Measured values: ChEMBL document CHEMBL3045269, “Anti-leukemic activity of sulfonoquinovosyldiacylglyceride (SQDG): a constituent of Azadirachta indica leaves” (Med Chem Res, 2013)

Columns and labels:
Format in all cases: functional
K562 [1] = test: Cytotoxicity against Homo sapiens (human) K562 cells assessed as growth inhibition at 2 ug/ml after 48 hr by MTT assay relative to untreated control; conditions: K562, 48 h, read-out: GI
U-937 [2] = test: Cytotoxicity against Homo sapiens (human) U937 cells assessed as growth inhibition at 2 ug/ml after 48 hr by MTT assay relative to untreated control; conditions: U-937, 48 h, read-out: GI
K562 [3] = test: Cytotoxicity against Homo sapiens (human) K562 cells assessed as growth inhibition at 2 ug/ml after 24 hr by MTT assay relative to untreated control; conditions: K562, 24 h, read-out: GI
U-937 [4] = test: Cytotoxicity against Homo sapiens (human) U937 cells assessed as growth inhibition at 2 ug/ml after 24 hr by MTT assay relative to untreated control; conditions: U-937, 24 h, read-out: GI

Work on `Nc1ccn([C@@H]2O[C@H](CO)[C@@H](O)[C@@H]2O)c(=O)n1` [CYTARABINE] yielded an inhibition of growth at 2 µg/mL (K562 [1]) of 65.1%, an inhibition of growth at 2 µg/mL (U-937 [2]) of 85.1% and an inhibition of growth at 2 µg/mL (K562 [3]) of 39.9%. It also gave an inhibition of growth at 2 µg/mL (U-937 [4]) of 59.9%.
